Experiment [1] deals with human Cav2.3c (α1E-c) channel and GABABR (Homo sapiens, UniProt O75899+Q9UBS5). It counts as cell-based. The conditions noted are these: 200 nM.
Experiment [2] relates to rat models of neuropathic pain. The conditions noted are these: in vivo; cited from earlier work.
Experiment [3] deals with human Cav2.3c channel and GABABR. It counts as cell-based.
The target of experiment [4] is human Cav2.1 (α1A-2) channel and GABABR (Homo sapiens, UniProt O75899+Q9UBS5). In kind it is cell-based. The conditions noted are these: 200 nM.
The test system of another experiment is GABABR. The conditions noted are these: cited from earlier work.

For the substance Vc1.1, the IBa inhibition in experiment [1] was 25.5 ± 4.2 (9) %; in experiment [4], 0 (9) %. Further, in experiment [2], the analgesic effect entry is given as “can be used as an analgesic in rat models of neuropathic pain”. Besides, the “pathway of inhibition (VD or VI)” value in experiment [3] is listed as “solely mediated by a VI pathway”. Also, the “competition with baclofen for binding to receptors” value with GABABR was “does not compete with baclofen for binding to receptors”.

These data come from PMC3971658 (The Journal of General Physiology, 2014).
